Among the data in patent US20260184726A1, “HETEROCYCLIC COMPOUNDS AS KINASE INHIBITORS, COMPOSITIONS, AND METHODS OF USE THEREOF” (JS INNOMED HOLDINGS LTD., priority 2022, published 2026) are IC50 and GI50 values, retold here.

In assay [1] the target is T1, human RET kinase (Homo sapiens, UniProt P07949).
T1 construct: purchased Carna 08-159
As to the kind of experiment: RET Kinase Assay (mobility shift assay, ATP at Km). The note with it: 23 μM ATP (Km), read-out: RET Enzymatic Activity. The class given is biochemical. As to the method: Compounds were tested by Mobility shift assay with ATP concentration at Km. The assay used human RET kinase (Carna 08-159). Test compounds were prepared and diluted in DMSO in 3-fold serial dilutions to 50× of the final testing concentrations. The compounds were then further diluted to 5× by the kinase reaction buffer (50 mM HEPES pH 7.5, 0.0015% Brij-35). The enzymatic reaction for compound testing was performed in a white 384-well polypropylene plate (Corning 3573) with a total reaction volume of 25 μl containing 7 nM RET, 3 μM peptide substrate FAM-P2 (GL Biochem 112394), and 23 μM ATP (Sigma A7699-1G). The assay started with loading RET diluted in kinase reaction buffer to wells, followed by addition of equal volume of 5× compounds for 15-min incubation at the room temperature for pre-treatment. The enzymatic reaction was initiated by addition of mixture of the substrate and ATP prepared in kinase reaction buffer. After incubation at 28° C. for one hour, 25 μl of stopper buffer (a mixture of 100 mM HEPES pH 7.5 buffer, 0.015% Brij-35, 50 mM EDTA and 0.2% of coating reagent 3 (Cliper Lifesciences)). After 30 minutes of incubation at room temperature, the plate was read in a Caliper. Percent of control was calculated as the percentage of compound-treated vs 2% DMSO vehicle-treated. The dose-response curves were generated and the IC50 values were calculated by nonlinear sigmoid curve fitting using XLFit.

The target of assay [2] is T2, human Aurora B kinase (Homo sapiens, UniProt Q96GD4).
T2 construct: purchased Carna 05-102
As to the kind of experiment: Aurora B Kinase Assay (mobility shift assay, ATP at Km). Format: biochemical. The note with it: 15 μM ATP (Km), read-out: AurB Enzymatic Activity. As to the method:
Compounds were tested by Mobility shift assay with ATP concentration at Km. The assay used human Aurora B kinase (Carna 05-102). Test compounds were prepared and diluted in DMSO in 3-fold serial dilutions to 50× of the final testing concentrations. The compounds were then further diluted to 5× by the kinase reaction buffer (50 mM HEPES pH 7.5, 0.0015% Brij-35). The enzymatic reaction for compound testing was performed in a white 384-well polypropylene plate (Corning 3573) with a total reaction volume of 25 μl containing 9 nM Aurora B, 3 μM peptide substrate FAM-P21 (GL Biochem 116370), and 15 μM ATP (Sigma A7699-1G). The assay started with loading Aurora B diluted in kinase reaction buffer to wells, followed by addition of equal volume of 5× compounds for 15-min incubation at the room temperature for pre-treatment. The enzymatic reaction was initiated by addition of mixture of the substrate and ATP prepared in kinase reaction buffer. After incubation at 28° C. for one hour, 25 μl of stopper buffer (a mixture of 100 mM HEPES pH 7.5 buffer, 0.015% Brij-35, 50 mM EDTA and 0.2% of coating reagent 3 (Cliper Lifesciences)). After 30 minutes of incubation at room temperature, the plate was read in a Caliper. Percent of control was calculated as the percentage of compound-treated vs 2% DMSO vehicle-treated. The dose-response curves were generated and the IC50 values were calculated by nonlinear sigmoid curve fitting using XLFit.

Assay [3] has as its system BAF3 cells. As to the kind of experiment: BAF3 Cell Proliferation Assay (CellTiter-Glo, without RET driven, IL-3). The class given is cell-based. The note with it: Mus musculus; growth inhibition in BAF3 cells, 72 hours, with IL-3; read-out: BAF3 Cellular Activity. The method, then: Compounds disclosed herein were tested for the inhibition BAF3 cells proliferation without RET driven by CellTiter-Glo assay. In this assay, a complete media was prepared by adding 10% fetal bovine serum and 1 ng/ml IL-3 to RPMI-1640 medium (Life technology) for BAF3 cells. BAF3 cells were added to each of 88 wells of a 96 well plate at a seeding density of 2,000 cells/well/95 μL. The cells were allowed to attach to the plate by incubating at 37° C. for 24 hours. The compound was dissolved in DMSO (SIGMA). A solution of test compound was prepared in complete media by serial dilution to obtain the following concentrations: 200 μM, 66.7 μM, 22.2 μM, 7.4 μM, 2.5 μM, 0.82 μM, 0.27 μM, 0.091 μM and […]. The test compound solution (5 μL) was added to each of 80 cell-containing wells. The final concentrations of the compound were following: 10 μM, 3.33 μM, 1.11 μM, 0.37 μM, 0.12 μM, 0.041 μM, 0.014 μM, 0.0046 μM and 0.0015 μM. The final concentration of DMSO is 0.1%. To the 8 remaining cell-containing wells, only complete media (containing 0.1% DMSO) was added to form a control group in order to measure maximal proliferation. To the remaining 8 empty wells, complete media was added to for a vehicle control group in order to measure background. The plates were incubated at 37° C. for 72 hours. 50 μl of CellTiter-Glo® Reagent was added to each well. The contents were mixed for 2 minutes on an orbital shaker to induce cell lysis, and then were incubated at room temperature for 10 minutes to stabilize luminescent signal. Luminescence was recorded on Paradigm. Cell viability (CV %) was calculated relative to vehicle (DMSO) treated control wells. The IC50 was calculated using GraphPad Prism.
For orientation: In ATP-based viability assays light output follows the ATP content of the culture.

For assay [4], the target named is T3, BAF3-KIF5B-RET cells (Homo sapiens, UniProt P07949).
T3 construct: fused on or other part: P33176 (Kinesin-1 heavy chain)
In words: BAF3-KIF5B-RET Cell Proliferation Assay (CellTiter-Glo). The class given is cell-based. The settings on record: growth inhibition, 72 hours; Table 2; read-out: BA/F3-KIF5B-RET Cellular activity. The method, then: Compounds disclosed herein were tested for the inhibition of RET by a cancer cell proliferation assay commonly known as CellTiter-Glo assay. In this assay, a complete media was prepared by adding 10% fetal bovine serum to RPMI-1640 medium (Life technology) for RET-driven cancer cells (BAF3-FIF5B-RET, Ba/F3-KIF5B-RET-G810R, Ba/F3-TEL-RET-M918T or Ba/F3-KIF5B-RET-V804M). Individual RET-driven type of cells were added to each of 88 wells of a 96 well plate at a seeding density of 2,000 cells/well/95 μL. The cells were allowed to attach to the plate by incubating at 37° C. for 24 hours. The compound was dissolved in DMSO (SIGMA). A solution of test compound was prepared in complete media by serial dilution to obtain the following concentrations: 20 μM, 6.67 μM, 2.22 μM, 0.74 μM, 0.25 μM, 0.082 μM, 0.027 μM, 0.0091 μM and 0.0030 μM. The test compound solution (5 μL) was added to each of 80 cell-containing wells. The final concentrations of the compound were following: 1 μM, 0.33 μM, 0.11 μM, 0.037 μM, 0.012 μM, 0.0041 μM, 0.0014 μM, 0.00046 μM and 0.00015 μM. The final concentration of DMSO is 0.1%. To the 8 remaining cell-containing wells, only complete media (containing 0.1% DMSO) was added to form a control group in order to measure maximal proliferation. To the remaining 8 empty wells, complete media was added to for a vehicle control group in order to measure background. The plates were incubated at 37° C. for 72 hours. 50 μl of CellTiter-Glo® Reagent was added to each well. Mix contents for 2 minutes on an orbital shaker to induce cell lysis. Incubate at room temperature for 10 minutes to stabilize luminescent signal. Record luminescence on Paradigm. Cell viability (CV %) was calculated relative to vehicle (DMSO) treated control wells. The IC50 was calculated using GraphPad Prism.

T3 sequence (P07949 whole entry, change not shown, the tested form may be a part): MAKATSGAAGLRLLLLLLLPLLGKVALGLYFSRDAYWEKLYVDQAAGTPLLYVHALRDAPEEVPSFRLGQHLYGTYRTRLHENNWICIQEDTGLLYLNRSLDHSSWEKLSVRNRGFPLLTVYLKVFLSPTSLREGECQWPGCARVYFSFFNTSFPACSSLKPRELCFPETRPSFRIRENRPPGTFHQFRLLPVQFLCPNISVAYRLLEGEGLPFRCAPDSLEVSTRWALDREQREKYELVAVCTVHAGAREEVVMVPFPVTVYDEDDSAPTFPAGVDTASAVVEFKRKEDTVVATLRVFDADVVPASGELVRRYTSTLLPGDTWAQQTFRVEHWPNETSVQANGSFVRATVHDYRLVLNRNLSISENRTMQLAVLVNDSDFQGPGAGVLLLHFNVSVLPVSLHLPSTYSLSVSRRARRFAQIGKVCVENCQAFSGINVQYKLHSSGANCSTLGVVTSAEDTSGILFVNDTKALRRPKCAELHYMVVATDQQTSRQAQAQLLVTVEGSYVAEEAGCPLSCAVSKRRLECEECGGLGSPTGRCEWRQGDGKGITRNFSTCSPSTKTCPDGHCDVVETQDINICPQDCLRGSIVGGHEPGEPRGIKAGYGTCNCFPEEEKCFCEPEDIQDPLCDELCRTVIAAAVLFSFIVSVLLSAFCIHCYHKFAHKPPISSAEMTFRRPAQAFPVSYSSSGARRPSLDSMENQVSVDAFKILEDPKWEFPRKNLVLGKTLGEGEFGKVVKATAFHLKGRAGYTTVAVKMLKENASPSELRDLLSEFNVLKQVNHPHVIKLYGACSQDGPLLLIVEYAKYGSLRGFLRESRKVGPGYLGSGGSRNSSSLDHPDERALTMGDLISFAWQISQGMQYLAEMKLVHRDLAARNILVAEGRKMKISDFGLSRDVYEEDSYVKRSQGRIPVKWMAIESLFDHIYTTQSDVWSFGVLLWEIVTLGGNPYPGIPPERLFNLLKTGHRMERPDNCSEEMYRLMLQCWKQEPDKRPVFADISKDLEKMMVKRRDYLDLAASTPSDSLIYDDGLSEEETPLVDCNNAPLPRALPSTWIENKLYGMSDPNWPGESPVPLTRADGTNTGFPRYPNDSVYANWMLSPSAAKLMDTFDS
T2 sequence (Q96GD4 whole entry): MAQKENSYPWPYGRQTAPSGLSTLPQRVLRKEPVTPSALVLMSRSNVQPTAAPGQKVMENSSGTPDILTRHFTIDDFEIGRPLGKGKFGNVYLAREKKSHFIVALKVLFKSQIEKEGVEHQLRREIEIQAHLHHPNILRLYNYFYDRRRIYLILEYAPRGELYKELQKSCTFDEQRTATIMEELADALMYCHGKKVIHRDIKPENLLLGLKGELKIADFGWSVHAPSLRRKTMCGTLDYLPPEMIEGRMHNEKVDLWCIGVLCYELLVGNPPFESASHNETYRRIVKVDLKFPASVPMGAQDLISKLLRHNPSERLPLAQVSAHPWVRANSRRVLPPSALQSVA
T2 sequence (Q9NQS7 803-918 partner limits assumed): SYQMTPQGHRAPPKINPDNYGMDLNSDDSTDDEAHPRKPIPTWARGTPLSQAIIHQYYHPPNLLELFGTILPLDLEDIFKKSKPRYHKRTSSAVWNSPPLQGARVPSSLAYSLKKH
T1 sequence (P07949 29-1114): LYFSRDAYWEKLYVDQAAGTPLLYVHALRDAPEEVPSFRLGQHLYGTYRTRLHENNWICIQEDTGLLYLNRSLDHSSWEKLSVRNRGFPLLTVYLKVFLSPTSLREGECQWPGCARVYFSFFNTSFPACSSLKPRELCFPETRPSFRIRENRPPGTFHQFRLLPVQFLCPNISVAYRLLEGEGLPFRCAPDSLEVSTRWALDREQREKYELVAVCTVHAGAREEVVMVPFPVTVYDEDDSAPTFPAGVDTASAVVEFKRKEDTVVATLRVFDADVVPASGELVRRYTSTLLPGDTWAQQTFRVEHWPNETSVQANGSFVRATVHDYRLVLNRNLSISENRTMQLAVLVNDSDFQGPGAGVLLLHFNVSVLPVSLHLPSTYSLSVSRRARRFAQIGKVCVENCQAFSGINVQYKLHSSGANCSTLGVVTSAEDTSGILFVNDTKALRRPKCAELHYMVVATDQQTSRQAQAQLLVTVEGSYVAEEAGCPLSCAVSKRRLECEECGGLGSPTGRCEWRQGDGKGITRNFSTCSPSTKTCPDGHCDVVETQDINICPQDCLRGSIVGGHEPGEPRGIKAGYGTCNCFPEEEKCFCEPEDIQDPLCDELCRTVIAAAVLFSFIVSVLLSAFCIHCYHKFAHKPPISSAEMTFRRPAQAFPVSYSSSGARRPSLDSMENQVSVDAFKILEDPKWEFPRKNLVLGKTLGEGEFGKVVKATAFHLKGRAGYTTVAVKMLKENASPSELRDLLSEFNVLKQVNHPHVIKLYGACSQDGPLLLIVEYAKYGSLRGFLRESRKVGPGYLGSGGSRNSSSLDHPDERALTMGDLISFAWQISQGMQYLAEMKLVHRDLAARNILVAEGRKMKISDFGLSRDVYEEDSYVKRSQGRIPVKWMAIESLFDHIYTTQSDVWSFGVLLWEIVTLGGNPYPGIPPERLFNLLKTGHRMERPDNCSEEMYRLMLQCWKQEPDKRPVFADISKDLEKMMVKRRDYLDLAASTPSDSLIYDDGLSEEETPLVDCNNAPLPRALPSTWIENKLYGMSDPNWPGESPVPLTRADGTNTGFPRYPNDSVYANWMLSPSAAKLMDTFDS

As to `COc1ccc(CN2C3CC2CN(c2ccc(-c4cc(-c5cc(C(C)(C)O)n(C)n5)cn5ncc(C#N)c45)cn2)C3)cn1` [Example 4, 6-(5-(2-hydroxypropan-2-yl)-1-methyl-1H-pyrazol-3-yl)-4-(6-(6-((6-methoxypyridin-3-yl)methyl)-3,6-diazabicyclo[3.1.1]heptan-3-yl)pyridin-3-yl)pyrazolo[1,5-a]pyridine-3-carbonitrile], the IC50 in assay [1] worked out at 0.67 nM; in assay [2], 128 nM; in assay [3], 2220 nM. Besides, the GI50 in assay [4] amounted to 0.7 nM.
For the compound `CC(C)(O)c1ccc(-c2cc(-c3ccc(N4C[C@@H]5[C@@H](CNC(=O)c6ncccc6Cl)[C@@H]5C4)nc3)c3c(C#N)cnn3c2)nc1` [Example 5, 3-chloro-N-(((1R,5S,6s)-3-(5-(3-cyano-6-(5-(2-hydroxypropan-2-yl)pyridin-2-yl)pyrazolo[1,5-a]pyridin-4-yl)pyridin-2-yl)-3-azabicyclo[3.1.0]hexan-6-yl)methyl)picolinamide], the IC50 in assay [1] was found to be 0.8 nM; in assay [2], 19.5 nM; in assay [3], 516 nM. In addition, the GI50 in assay [4] came to 3 nM.
With `COc1ccc(CN2C3CC2CN(c2ccc(-c4cc(-c5cc(C(C)(C)O)nn5C)cn5ncc(C#N)c45)cn2)C3)cn1` [Example 26, 6-(3-(2-hydroxypropan-2-yl)-1-methyl-1H-pyrazol-5-yl)-4-(6-(6-((6-methoxypyridin-3-yl)methyl)-3,6-diazabicyclo[3.1.1]heptan-3-yl)pyridin-3-yl)pyrazolo[1,5-a]pyridine-3-carbonitrile], the IC50 in assay [3] is above 10000 nM. Further, the GI50 in assay [4] was found to be 46.8 nM.
The corresponding values for `COc1ccc(CN2C3CC2CN(c2ccc(-c4cc(-c5ccc(C(C)(C)O)s5)cn5ncc(C#N)c45)cn2)C3)cn1` [Example 27, 6-(5-(2-hydroxypropan-2-yl)thiophen-2-yl)-4-(6-(6-((6-methoxypyridin-3-yl)methyl)-3,6-diazabicyclo[3.1.1]heptan-3-yl)pyridin-3-yl)pyrazolo[1,5-a]pyridine-3-carbonitrile] are 913 nM and 0.7 nM.
With `COc1ccc(CN2C3CC2CN(c2ccc(-c4cc(-c5cc(C(C)(C)NC(C)=O)n(C)n5)cn5ncc(C#N)c45)cn2)C3)cn1` [Example 28, N-(2-(3-(3-cyano-4-(6-(6-((6-methoxypyridin-3-yl)methyl)-3,6-diazabicyclo[3.1.1]heptan-3-yl)pyridin-3-yl)pyrazolo[1,5-a]pyridin-6-yl)-1-methyl-1H-pyrazol-5-yl)propan-2-yl)acetamide], the IC50 in assay [3] came to 2330 nM. Besides, in assay [4], the GI50 was determined as 4 nM.
For `COc1ccc(CN2C3CC2CN(c2ccc(-c4cc(-c5ccc(OCC(C)(C)O)cn5)cn5ncc(C#N)c45)cn2)C3)cn1` [Example 32, 6-(5-(2-hydroxy-2-methylpropoxy)pyridin-2-yl)-4-(6-(6-((6-methoxypyridin-3-yl)methyl)-3,6-diazabicyclo[3.1.1]heptan-3-yl)pyridin-3-yl)pyrazolo[1,5-a]pyridine-3-carbonitrile] the same measures were 1620 nM and 1.4 nM.
Consider `COc1ccc(CN2C3CC2CN(c2ccc(-c4cc(-c5ccc(OCC(C)(C)O)nc5)cn5ncc(C#N)c45)cn2)C3)cn1` [Example 33, 6-(6-(2-hydroxy-2-methylpropoxy)pyridin-3-yl)-4-(6-(6-((6-methoxypyridin-3-yl)methyl)-3,6-diazabicyclo[3.1.1]heptan-3-yl)pyridin-3-yl)pyrazolo[1,5-a]pyridine-3-carbonitrile], for which, in assay [3], the IC50 is 2580 nM. For the same compound, in assay [4], the GI50 is 5.1 nM.
For `COc1ccc(CN2C3CC2CN(c2ccc(-c4cc(-c5ccn(CC(C)(C)O)n5)cn5ncc(C#N)c45)cn2)C3)cn1` [Example 34, 6-(1-(2-hydroxy-2-methylpropyl)-1H-pyrazol-3-yl)-4-(6-(6-((6-methoxypyridin-3-yl)methyl)-3,6-diazabicyclo[3.1.1]heptan-3-yl)pyridin-3-yl)pyrazolo[1,5-a]pyridine-3-carbonitrile], the IC50 in assay [3] is 1800 nM. For the same compound, the GI50 in assay [4] stood at 0.7 nM.
Consider `COc1ccc(CN2C3CC2CN(c2ccc(-c4cc(-c5cnn(CC(C)(C)O)c5)cn5ncc(C#N)c45)cn2)C3)cn1` [Example 35, 6-(1-(2-hydroxy-2-methylpropyl)-1H-pyrazol-4-yl)-4-(6-(6-((6-methoxypyridin-3-yl)methyl)-3,6-diazabicyclo[3.1.1]heptan-3-yl)pyridin-3-yl)pyrazolo[1,5-a]pyridine-3-carbonitrile], for which the IC50 in assay [3] was determined as 340 nM. Besides, the GI50 in assay [4] came out at 0.5 nM.
With `COc1ccc(CN2C3CC2CN(c2ccc(-c4cc(-c5ccc(S(N)(=O)=O)cn5)cn5ncc(C#N)c45)cn2)C3)cn1` [Example 36, 6-(3-cyano-4-(6-(6-((6-methoxypyridin-3-yl)methyl)-3,6-diazabicyclo[3.1.1]heptan-3-yl)pyridin-3-yl)pyrazolo[1,5-a]pyridin-6-yl)pyridine-3-sulfonamide], in assay [3], the IC50 was determined as 8210 nM. In assay [4], the GI50 was determined as 16.6 nM.
